Laboratory results as given in paper PMC11868579 (Nature Communications, 2024).
“And” between values parts separate entries of the source, which are not always exact repeats. Equal entries are not always repeated.

Key:
[1] = test system: cap-dependent and cap-independent (IRES) protein synthesis; assay: Bicistronic protein synthesis reporter in HEK293 cells; assay type: cell-based, human; details: for Cap translation, Average / IRES, Average: HEK293, n=3; for Cap translation, Average: cap-dependent luciferase reporter; for IRES, Average: cap-independent luciferase driven by viral IRES
Method: Supplementary Fig. 10 Determination of the effects of compound 4 on protein synthesis and viability. a HEK293 cells were transfected with protein synthesis reporter expressing bicistonic mRNA with a cap-dependent luciferase reporter and a cap-independent luciferase driven by a viral IRES. Cells were treated with 1 or 10 µM […]
with compound 4 for 24 hr. […]
Source data is located in the Supplementary Source Data file

Caco-2 monolayer = assay: Caco-2 permeability assay; assay type: in vitro ADME
Method: Caco-2 permeability Assay
The permeability of Compound 4 was assessed using the CacoReady system.
Compound 4 and control compounds (propranolol, antipyrine, and vinblastine) were incubated at a final concentration of 10 µM in duplicate to either the apical (180 µL) of the monolayer to measure apical to basolateral transport (A > B) across the cell barrier or to the basolateral side (750 µL) to measure the basolateral to apical transport (B > A). For A > B spiking, test and control compounds were diluted from 10 mM DMSO stocks to 10 µM in HBSS buffer with 100 mM CaCl2·2H2O, 50 mM MgCl2·5H2O, and 0.5 mg/mL lucifer yellow made to volume with sterile water (lucifer yellow was used to determine the integrity of the Caco-2 monolayer). For B > A compound spiking, test and control compounds were prepared as for the A > B solutions without the addition of lucifer yellow. Test and control compounds were incubated for 1 h at +37 °C in a highly humidified atmosphere of 95% air and 5% CO2. […]

eIF4E–4E-BP1 interaction = eIF4E–4E-BP1 interaction (Homo sapiens, UniProt P06730); assay: Electro-chemiluminescent binding assay, eIF4E:4E-BP1, SW620 cell lysates; assay type: biochemical; set-up: endogenous in cells; host or cells: SW620 cell lysates; details: for 4E-BP1:eIF4E luminescence signal normalised to DMSO control: SW620, Expt 1, Expt 2, Fig. 4d
Method: This assay uses plates with carbon electrodes and electro-chemiluminescent labels (SULFO-TAGs) that are conjugated to detection antibodies. When an electric current is applied to the plate electrodes the SULFO-TAG labels will emit light that is measured to quantify analytes in the sample. […] The plates were washed with 3 ×150 µl/well MSD wash buffer (cat#R61AA-1; 0.2% Tween-20 in PBS), then blocked with 150 µl/well block buffer (MSD, cat# R93AA) for 1 h. […] The incubated plates were washed 4x in 150 µl in MSD wash buffer and were re-blocked by the addition of 25 μl of blocking buffer containing a 1:500 dilution of the secondary antibody and incubated for 1 hr at RT with rotational shaking. […] Plates were then washed again 4x in 150 µl in MSD wash buffer and 25 μl of a 1:50 dilution of Goat anti-rabbit Sulfo-Tag (MSD, Cat# R32AB-1) in MSD blocking buffer was added and the plates incubated for 1 h at RT with rotational shaking. After a final wash step, 150 μl Read Buffer T4X (MSD, Cat# R92-TC2) was added and the plate read using the MSD QuickPlex SQ 120 plate reader.

[2] = test system: eIF4E-dTAG (FKBP12^F36V-tagged eIF4E); assay: Immunoblot of eIF4E-dTAG degradation in H1299 eIF4E-dTAG clones; assay type: cell-based, human; details: 6 h at ≈ 2–5x the IC50
Method: Treatment of isolated clones with the heterobifunctional dTAG^V−1 molecule recruits E3 ligase VHL to degrade eIF4E-dTAG. […] Parental H1299 cells and the selected eIF4E-dTAG clones were treated with 0.5 and 1 µM dTAG^V−1 for 6, 8, or 16 h. Vinculin was used as a loading control (n = 3 biological replicates). c Real-time cell growth measurements of the selected eIF4E-dTAG clones treated with 0.5 or 1 µM dTAG^V−1. Cell confluency (%) was monitored every 4 h over 6 days using Incucyte Zoom. Significance was determined using a one-way ANOVA with Tukey multiple comparisons test comparing dTAG^V−1 treatment with the control in each cell line. […] Significant differences between control and treated samples were determined using MSstats. […]
After seeding overnight in 6 well plates (Corning, cat#353046), cells were treated with compounds for the indicated times and concentration, harvested and the cell pellet lysed on ice in cell lysis buffer (Cell Signaling, cat#9803), supplemented with 1x Halt^TM protease inhibitor cocktail (Fisher Scientific, cat#78429) and cOmplete^TM protease inhibitor cocktail (Sigma-Aldrich, cat#11836153001) for 1 hr. Protein was quantified using BCA protein kit (Fisher Scientific, cat#23225). […] Quantitative densitometry analysis of protein bands was performed using Image J v1.53 software.

Sequence of eIF4E–4E-BP1 interaction (P06730 2-217 limits assumed): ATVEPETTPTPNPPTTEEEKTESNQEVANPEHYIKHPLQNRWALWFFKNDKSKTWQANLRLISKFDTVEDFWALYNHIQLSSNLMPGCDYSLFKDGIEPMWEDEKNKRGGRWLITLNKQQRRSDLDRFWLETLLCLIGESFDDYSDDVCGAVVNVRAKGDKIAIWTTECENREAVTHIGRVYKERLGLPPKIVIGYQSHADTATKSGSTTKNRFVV

SMILES | Cap translation, Average ([1]; 1μM) | IRES, Average ([1]; 1μM) | Cap translation, Average ([1]; 10μM) | IRES, Average ([1]; 10μM) | inhibitory activity in dual reporter assay ([1]; HEK293 cells, 1 or 10 µM, 24 hr) | permeability in Caco2 assay (Caco-2 monolayer) | Caco-2 permeability Papp (A-B) (Caco-2 monolayer; 10 µM, 1 h) | efflux ratio (Caco-2 monolayer; Caco2) | 4E-BP1:eIF4E luminescence signal normalised to DMSO control (eIF4E–4E-BP1 interaction; 0.4 μM) | 4E-BP1:eIF4E luminescence signal normalised to DMSO control (eIF4E–4E-BP1 interaction; 4 μM) | 4E-BP1:eIF4E luminescence signal normalised to DMSO control (eIF4E–4E-BP1 interaction; 12 μM) | 4E-BP1:eIF4E luminescence signal normalised to DMSO control (eIF4E–4E-BP1 interaction; 40 μM) | effect on 4E-BP1 binding to eIF4E (eIF4E–4E-BP1 interaction; SW620 cell lysates) | 4E-BP1:eIF4E SW620, luminescence ratio normalised to DMSO control (eIF4E–4E-BP1 interaction; SW620 lysates, 100 µM, 30 min, single experiments Expt 1, Expt 2) | loss of eIF4E-dTAG [2]
CC[C@H](O[C@H](C)CO)c1ccc(-c2ccccc2F)cc1NCCO [Compound 4] | 87.46 | 89.67 | 74.14 | 83.90 | lacked inhibitory activity | good permeability | 9 ×10⁻⁶ cm/s | 1.5 | 98.1% and 93.2% | 74.9% and 84.1% | 74.8% and 76% | 76.2% and 83.6% | not 4E-BP1 binding to eIF4E | 103% and 91% | 
CC[C@H](C(=O)N1CCCC[C@H]1C(=O)O[C@H](CCc1ccc(OC)c(OC)c1)c1ccccc1OCC(=O)NCCCCCCC(=O)N[C@H](C(=O)N1C[C@H](O)C[C@H]1C(=O)N[C@@H](C)c1ccc(-c2scnc2C)cc1)C(C)(C)C)c1cc(OC)c(OC)c(OC)c1 [dTAG^V-1] |  |  |  |  |  |  |  |  |  |  |  |  |  |  | near complete loss of eIF4E-dTAG
